Results from PubChem BioAssay (NCI).
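Growth conditions: 96-well plates. Treatment: test compound, 48 hours, 5 concentrations. Analysis: linear interpolation between bracketing concentrations; unreached endpoints set to highest concentration. TGI is the concentration that stops growth completely.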

Assays:
Experiment in all cases: NCI anticancer screen, dose series, 48 h
IGROV1 ovarian = tested on: IGROV1 ovarian
MDA-MB-231 breast = tested on: MDA-MB-231 breast
RPMI-8226 leukemia = tested on: RPMI-8226 leukemia
MCF7 breast = tested on: MCF7 breast
SR leukemia = tested on: SR leukemia
BT-549 breast = tested on: BT-549 breast
786-0 renal = tested on: 786-0 renal
CCRF-CEM leukemia = tested on: CCRF-CEM leukemia
SN12C renal = tested on: SN12C renal
RXF 393 renal = tested on: RXF 393 renal
CAKI-1 renal = tested on: CAKI-1 renal
HOP-62 NSCLC = tested on: HOP-62 NSCLC
EKVX NSCLC = tested on: EKVX NSCLC
SF-268 CNS = tested on: SF-268 CNS
MALME-3M melanoma = tested on: MALME-3M melanoma
HCC-2998 colon = tested on: HCC-2998 colon
SNB-75 CNS = tested on: SNB-75 CNS
NCI-H522 lung = tested on: NCI-H522 lung
OVCAR-5 ovarian = tested on: OVCAR-5 ovarian

O=c1c(=[n+]2ccc(=C([O-])c3ccccc3)cc2)/c(=N/S(=O)(=O)c2ccccc2)c(=O)c2ccccc12 was tested, and the TGI (IGROV1 ovarian) was 23 µM, the TGI (MDA-MB-231 breast) was 26.1 µM and the TGI (RPMI-8226 leukemia) was 18.9 µM. It also gave a TGI (MCF7 breast) of 25.7 µM, a TGI (SR leukemia) of 13.4 µM and a TGI (BT-549 breast) of 18 µM. For the same compound, the TGI (786-0 renal) was 19.5 µM, the TGI (CCRF-CEM leukemia) was 6.11 µM and the TGI (SN12C renal) was 19 µM. For the same compound, the TGI (RXF 393 renal) was 25.2 µM, the TGI (CAKI-1 renal) was 5.19 µM and the TGI (HOP-62 NSCLC) was 22.7 µM. The TGI (EKVX NSCLC) was 27 µM, the TGI (SF-268 CNS) was 25.7 µM and the TGI (MALME-3M melanoma) was 16.9 µM. For the same compound, the TGI (HCC-2998 colon) was 23.7 µM, the TGI (SNB-75 CNS) was 27.7 µM and the TGI (NCI-H522 lung) was 18.3 µM. For the same compound, the TGI (OVCAR-5 ovarian) was 33.7 µM.

Compound CCOC(=O)c1ccc(Nc2nc3cc(C(F)(F)F)ccc3nc2C(=O)OCC)cc1 has a TGI (IGROV1 ovarian) of over 100 µM, a TGI (MDA-MB-231 breast) of over 100 µM and a TGI (RPMI-8226 leukemia) of over 100 µM. The TGI (MCF7 breast) was over 100 µM, the TGI (SR leukemia) was over 100 µM and the TGI (BT-549 breast) was over 100 µM. It also gave a TGI (786-0 renal) of 87 µM, a TGI (CCRF-CEM leukemia) of over 100 µM and a TGI (SN12C renal) of over 100 µM. It also gave a TGI (RXF 393 renal) of over 100 µM, a TGI (CAKI-1 renal) of 49.6 µM and a TGI (HOP-62 NSCLC) of 65.2 µM. The TGI (EKVX NSCLC) was over 100 µM, the TGI (SF-268 CNS) was over 100 µM and the TGI (HCC-2998 colon) was 69.5 µM. For the same compound, the TGI (SNB-75 CNS) was over 100 µM, the TGI (NCI-H522 lung) was over 100 µM and the TGI (OVCAR-5 ovarian) was over 100 µM.

Compound Cn1c(=O)c2c(nc3n(C)c(=O)c4ccccc4n23)n(C)c1=O has a TGI (IGROV1 ovarian) of over 100 µM, a TGI (MDA-MB-231 breast) of over 100 µM and a TGI (RPMI-8226 leukemia) of over 76.7 µM. It also gave a TGI (MCF7 breast) of over 100 µM, a TGI (SR leukemia) of 20.1 µM and a TGI (BT-549 breast) of over 100 µM. The TGI (786-0 renal) was over 100 µM, the TGI (CCRF-CEM leukemia) was 44.9 µM and the TGI (SN12C renal) was over 100 µM. The TGI (RXF 393 renal) was over 100 µM, the TGI (CAKI-1 renal) was over 100 µM and the TGI (HOP-62 NSCLC) was over 84.3 µM. The TGI (EKVX NSCLC) was over 100 µM, the TGI (SF-268 CNS) was over 100 µM and the TGI (MALME-3M melanoma) was over 100 µM. It also gave a TGI (HCC-2998 colon) of over 100 µM, a TGI (SNB-75 CNS) of over 93.5 µM and a TGI (NCI-H522 lung) of over 100 µM. The TGI (OVCAR-5 ovarian) was over 100 µM.

COc1cccc(C2c3cc4c(cc3OC(N3CCCCC3)C2C)OCO4)c1OC (stereo not given) was tested, and the TGI (IGROV1 ovarian) was 61.7 µM, the TGI (MDA-MB-231 breast) was 41 µM and the TGI (RPMI-8226 leukemia) was 21.6 µM. The TGI (MCF7 breast) was 52.1 µM, the TGI (SR leukemia) was 4.02 µM and the TGI (BT-549 breast) was 57.4 µM. For the same compound, the TGI (786-0 renal) was over 100 µM, the TGI (CCRF-CEM leukemia) was 15.2 µM and the TGI (SN12C renal) was 96.8 µM. The TGI (RXF 393 renal) was 28.2 µM, the TGI (CAKI-1 renal) was 11 µM and the TGI (HOP-62 NSCLC) was 50.1 µM. It also gave a TGI (EKVX NSCLC) of 54.5 µM, a TGI (SF-268 CNS) of 48.4 µM and a TGI (MALME-3M melanoma) of 39.4 µM. It also gave a TGI (HCC-2998 colon) of 33 µM, a TGI (SNB-75 CNS) of 66.7 µM and a TGI (NCI-H522 lung) of 29 µM. For the same compound, the TGI (OVCAR-5 ovarian) was 79.4 µM.

For O=c1[nH]c2cc([N+](=O)[O-])ccc2nc1/C=C(\O)c1ccc(Cl)cc1, the TGI (IGROV1 ovarian) was 26.6 µM, the TGI (MDA-MB-231 breast) was 24.7 µM and the TGI (RPMI-8226 leukemia) was 65.2 µM. It also gave a TGI (MCF7 breast) of 26.2 µM, a TGI (SR leukemia) of 38.9 µM and a TGI (BT-549 breast) of 19.1 µM. For the same compound, the TGI (786-0 renal) was 14.4 µM, the TGI (CCRF-CEM leukemia) was 33.8 µM and the TGI (RXF 393 renal) was 11.9 µM. For the same compound, the TGI (CAKI-1 renal) was 33.1 µM, the TGI (EKVX NSCLC) was 35.5 µM and the TGI (SF-268 CNS) was 53.8 µM. The TGI (MALME-3M melanoma) was 84.9 µM, the TGI (HCC-2998 colon) was 72.3 µM and the TGI (SNB-75 CNS) was 55 µM. It also gave a TGI (OVCAR-5 ovarian) of 46 µM.

For O=C(O)C1=NN(c2ccc(S(=O)(=O)O)cc2)C2(C1)SCC(=O)N2c1nc2ccccc2s1 (stereo not given), the TGI (IGROV1 ovarian) was over 100 µM, the TGI (MDA-MB-231 breast) was over 100 µM and the TGI (RPMI-8226 leukemia) was over 100 µM. For the same compound, the TGI (MCF7 breast) was over 100 µM, the TGI (SR leukemia) was over 100 µM and the TGI (BT-549 breast) was over 100 µM. It also gave a TGI (786-0 renal) of over 100 µM, a TGI (CCRF-CEM leukemia) of over 100 µM and a TGI (SN12C renal) of over 100 µM. It also gave a TGI (RXF 393 renal) of over 100 µM, a TGI (CAKI-1 renal) of over 100 µM and a TGI (HOP-62 NSCLC) of over 100 µM. It also gave a TGI (EKVX NSCLC) of over 100 µM, a TGI (SF-268 CNS) of over 100 µM and a TGI (MALME-3M melanoma) of over 100 µM. For the same compound, the TGI (HCC-2998 colon) was over 100 µM, the TGI (SNB-75 CNS) was over 100 µM and the TGI (NCI-H522 lung) was over 100 µM. The TGI (OVCAR-5 ovarian) was over 100 µM.
